Assay results from patent US12077503B2, “Substituted cyclic amides and their use as herbicides” (FMC CORPORATION, priority 2015, dated 2024).

Columns and labels:
Format in all cases: in vivo
rice (Oryra sativa) = experiment: Test B flooded paddy test; conditions: Oryza sativa, 250 g ai/ha, Flood; 0 to 100 scale where 0 is no effect and 100 is complete control; read-out: Rice plant response rating
In short: (§1)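 Rating scale 0–100 (visual, vs untreated controls) after a 13–15 d greenhouse period; application to the flood layer, 3 cm above soil and maintained; plants at 2-leaf stage when treated.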

[1] = system: sedge, umbrella (small-flower umbrella sedge, Cyperus difformis); experiment: Test B flooded paddy test; conditions: Cyperus difformis, 250 g ai/ha, Flood; 0 to 100 scale where 0 is no effect and 100 is complete control; read-out: Sedge, Umbrella plant response rating
In short: as §1

[2] = system: barnyardgrass (Echinochloa crus-galli); experiment: Test B flooded paddy test; conditions: Echinochloa crus-galli, 250 g ai/ha, Flood; 0 to 100 scale where 0 is no effect and 100 is complete control; read-out: Barnyardgrass plant response rating
In short: as §1

[3] = system: ducksalad (Heteranthera limosa); experiment: Test B flooded paddy test; conditions: Heteranthera limosa, 250 g ai/ha, Flood; 0 to 100 scale where 0 is no effect and 100 is complete control; read-out: Ducksalad plant response rating
In short: as §1

[4] = system: ryegrass, Italian (Italian ryegrass, Lolium multiflorum); experiment: Test A postemergence; conditions: Lolium multiflorum, post-emergence, 240 h
In short: (§2)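 Each rating is a visual injury score from 0 to 100 given about 10 d after treatment, judged against untreated controls kept alongside in the greenhouse. In loam soil–sand blend, seeds got a preemergence directed soil spray, while postemergence plants were 2 to 10 cm tall at spraying.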

Kochia (Kochia scoparia) [5] = experiment: Test A postemergence; conditions: Bassia scoparia, post-emergence, 240 h
In short: as §2

[6] = system: blackgrass (Alopecurus myosuroides); experiment: Test A postemergence; conditions: Alopecurus myosuroides, post-emergence, 240 h
In short: as §2

[7] = system: Galium (catchweed bedstraw, Galium aparine); experiment: Test A postemergence; conditions: Galium, post-emergence, 240 h
In short: as §2

corn (Zea mays) = experiment: Test A postemergence; conditions: Zea mays, post-emergence, 240 h
In short: as §2

[8] = system: pigweed (Amaranthus retroflexus); experiment: Test A postemergence; conditions: Amaranthus retroflexus, post-emergence, 240 h
In short: as §2

[9] = system: giant foxtail (Setaria faberii); experiment: Test A postemergence; conditions: Setaria faberi, post-emergence, 240 h
In short: as §2

[10] = system: barnyardgrass (Echinochloa crus-galli); experiment: Test A postemergence; conditions: Echinochloa crus-galli, post-emergence, 240 h
In short: as §2

[11] = system: ragweed (common ragweed, Ambrosia elatior); experiment: Test A postemergence; conditions: Ambrosia artemisiifolia, post-emergence, 240 h
In short: as §2

[12] = system: wheat (Triticum aestivum); experiment: Test A postemergence; conditions: Triticum aestivum, post-emergence, 240 h
In short: as §2

[13] = system: ryegrass, Italian (Italian ryegrass, Lolium multiflorum); experiment: Test A preemergence; conditions: Lolium multiflorum, pre-emergence, 240 h, 0 to 100 scale where 0 is no effect and 100 is complete control, read-out: Ryegrass, Italian plant response rating
In short: as §2

Kochia (Kochia scoparia) [14] = experiment: Test A preemergence; conditions: Bassia scoparia, pre-emergence, 240 h, 0 to 100 scale where 0 is no effect and 100 is complete control, read-out: Kochia plant response rating
In short: as §2

[15] = system: pigweed (Amaranthus retroflexus); experiment: Test A preemergence; conditions: Amaranthus retroflexus, pre-emergence, 240 h, 0 to 100 scale where 0 is no effect and 100 is complete control, read-out: Pigweed plant response rating
[16] = system: giant foxtail (Setaria faberii); experiment: Test A preemergence; conditions: Setaria faberi, pre-emergence, 240 h, 0 to 100 scale where 0 is no effect and 100 is complete control, read-out: Foxtail, Giant plant response rating
In short: as §2

[17] = system: barnyardgrass (Echinochloa crus-galli); experiment: Test A preemergence; conditions: Echinochloa crus-galli, pre-emergence, 240 h, 0 to 100 scale where 0 is no effect and 100 is complete control, read-out: Barnyardgrass plant response rating
In short: as §2

[18] = system: ragweed (common ragweed, Ambrosia elatior); experiment: Test A preemergence; conditions: Ambrosia artemisiifolia, pre-emergence, 240 h, 0 to 100 scale where 0 is no effect and 100 is complete control, read-out: Ragweed plant response rating
In short: as §2

[19] = 125 g ai/ha, preemergence, approx. 10 d

COCOCc1ccccc1NC(=O)[C@H]1C(=O)N(C)C[C@@H]1c1cccc(C(F)(F)F)c1 (racemic) [Compound 1161]
pest or weed control at 250 g/ha (rice (Oryra sativa)): 15%
pest or weed control at 250 g/ha [1]: 0%
pest or weed control at 250 g/ha [2]: 0%
pest or weed control at 250 g/ha [3]: 0%
pest or weed control at 125 g/ha ([4]; 125 g ai/ha, postemergence, visual injury vs untreated controls after approx. 10 d, 0 = no effect, 100 = complete control, read-out: Ryegrass, Italian plant response rating (0 to 100 scale)): 0%
pest or weed control at 31 g/ha ([4]; Postemergence, 31 g ai/ha, visual injury after approx. 10 d, 0 to 100 scale, 0 no effect, 100 complete control, read-out: Plant response rating, Ryegrass, Italian): 0%
pest or weed control at 125 g/ha (Kochia (Kochia scoparia) [5]; 125 g ai/ha, postemergence, visual injury vs untreated controls after approx. 10 d, 0 = no effect, 100 = complete control, read-out: Kochia plant response rating (0 to 100 scale)): 0%
pest or weed control at 31 g/ha (Kochia (Kochia scoparia) [5]; Postemergence, 31 g ai/ha, visual injury after approx. 10 d, 0 to 100 scale, 0 no effect, 100 complete control, read-out: Plant response rating, Kochia): 0%
pest or weed control at 125 g/ha ([6]; 125 g ai/ha, postemergence, visual injury vs untreated controls after approx. 10 d, 0 = no effect, 100 = complete control, read-out: Blackgrass plant response rating (0 to 100 scale)): 0%
pest or weed control at 31 g/ha ([6]; Postemergence, 31 g ai/ha, visual injury after approx. 10 d, 0 to 100 scale, 0 no effect, 100 complete control, read-out: Plant response rating, Blackgrass): 0%
pest or weed control at 125 g/ha ([7]; 125 g ai/ha, postemergence, visual injury vs untreated controls after approx. 10 d, 0 = no effect, 100 = complete control, read-out: Galium plant response rating (0 to 100 scale)): 0%
pest or weed control at 31 g/ha ([7]; Postemergence, 31 g ai/ha, visual injury after approx. 10 d, 0 to 100 scale, 0 no effect, 100 complete control, read-out: Plant response rating, Galium): 0%
plant injury at 125 g/ha (corn (Zea mays); 125 g ai/ha, postemergence, visual injury vs untreated controls after approx. 10 d, 0 = no effect, 100 = complete control, read-out: Corn plant response rating (0 to 100 scale)): 0%
Corn plant response rating (crop injury, 0 = no effect, 100 = complete kill) at 31 g/ha (corn (Zea mays); Postemergence, 31 g ai/ha, visual injury after approx. 10 d, 0 to 100 scale, 0 no effect, 100 complete control): 0%
pest or weed control at 125 g/ha ([8]; 125 g ai/ha, postemergence, visual injury vs untreated controls after approx. 10 d, 0 = no effect, 100 = complete control, read-out: Pigweed plant response rating (0 to 100 scale)): 0%
pest or weed control at 31 g/ha ([8]; Postemergence, 31 g ai/ha, visual injury after approx. 10 d, 0 to 100 scale, 0 no effect, 100 complete control, read-out: Plant response rating, Pigweed): 0%
pest or weed control at 125 g/ha ([9]; 125 g ai/ha, postemergence, visual injury vs untreated controls after approx. 10 d, 0 = no effect, 100 = complete control, read-out: Foxtail, Giant plant response rating (0 to 100 scale)): 0%
pest or weed control at 31 g/ha ([9]; Postemergence, 31 g ai/ha, visual injury after approx. 10 d, 0 to 100 scale, 0 no effect, 100 complete control, read-out: Plant response rating, Foxtail, Giant): 0%
pest or weed control at 125 g/ha ([10]; 125 g ai/ha, postemergence, visual injury vs untreated controls after approx. 10 d, 0 = no effect, 100 = complete control, read-out: Barnyardgrass plant response rating (0 to 100 scale)): 0%
pest or weed control at 31 g/ha ([10]; Postemergence, 31 g ai/ha, visual injury after approx. 10 d, 0 to 100 scale, 0 no effect, 100 complete control, read-out: Plant response rating, Barnyardgrass): 0%
pest or weed control at 125 g/ha ([11]; 125 g ai/ha, postemergence, visual injury vs untreated controls after approx. 10 d, 0 = no effect, 100 = complete control, read-out: Ragweed plant response rating (0 to 100 scale)): 0%
pest or weed control at 31 g/ha ([11]; Postemergence, 31 g ai/ha, visual injury after approx. 10 d, 0 to 100 scale, 0 no effect, 100 complete control, read-out: Plant response rating, Ragweed): 0%
plant injury at 125 g/ha ([12]; 125 g ai/ha, postemergence, visual injury vs untreated controls after approx. 10 d, 0 = no effect, 100 = complete control, read-out: Wheat plant response rating (0 to 100 scale)): 0%
plant injury at 31 g/ha ([12]; Postemergence, 31 g ai/ha, visual injury after approx. 10 d, 0 to 100 scale, 0 no effect, 100 complete control, read-out: Plant response rating, Wheat): 0%
pest or weed control at 31 g/ha ([13]; 31 g ai/ha, Preemergence): 0%
pest or weed control at 125 g/ha [13, 19]: 0%
pest or weed control at 31 g/ha (Kochia (Kochia scoparia) [14]; 31 g ai/ha, Preemergence): 0%
pest or weed control at 125 g/ha (Kochia (Kochia scoparia) [14]; [19]): 0%
pest or weed control at 31 g/ha ([15]; 31 g ai/ha, Preemergence): 0%
pest or weed control at 125 g/ha [15, 19]: 0%
pest or weed control at 31 g/ha ([16]; 31 g ai/ha, Preemergence): 0%
pest or weed control at 125 g/ha [16, 19]: 20%
pest or weed control at 31 g/ha ([17]; 31 g ai/ha, Preemergence): 0%
pest or weed control at 125 g/ha [17, 19]: 0%
pest or weed control at 31 g/ha ([18]; 31 g ai/ha, Preemergence): 0%
pest or weed control at 125 g/ha [18, 19]: 0%
